From US8143253B2, “Organic compounds” (Novartis AG, priority 2007, dated 2012)

Tested on: dimethylnitrosamine induced liver fibrosis
Experiment: not given
Conditions: rat, during the 3 weeks treatment; cited from earlier work

| Structure (SMILES) | side effects |
| --- | --- |
| c1ccc(-c2cc(-c3cn[nH]c3-c3ccccn3)ccn2)cc1 [GW6604] | no obvious side effects |

Same assay, conditions: rat, given therapeutically; cited from earlier work

| Structure (SMILES) | inhibited extracellular matrix deposition | prevented death rate |
| --- | --- | --- |
| c1ccc(-c2cc(-c3cn[nH]c3-c3ccccn3)ccn2)cc1 [GW6604] | 60% | 40% |

Target: T1, human ALK5 (ALK5 T204D kinase domain) (Homo sapiens, UniProt P36897, T204D)
T1 construct: The kinase domain of human ALK5 (amino acids 200-503) is fused to an N-terminal histidine tag; made in house; host or cells: insect cells (baculovirus)
T1 sequence (P36897 200-503 T204D): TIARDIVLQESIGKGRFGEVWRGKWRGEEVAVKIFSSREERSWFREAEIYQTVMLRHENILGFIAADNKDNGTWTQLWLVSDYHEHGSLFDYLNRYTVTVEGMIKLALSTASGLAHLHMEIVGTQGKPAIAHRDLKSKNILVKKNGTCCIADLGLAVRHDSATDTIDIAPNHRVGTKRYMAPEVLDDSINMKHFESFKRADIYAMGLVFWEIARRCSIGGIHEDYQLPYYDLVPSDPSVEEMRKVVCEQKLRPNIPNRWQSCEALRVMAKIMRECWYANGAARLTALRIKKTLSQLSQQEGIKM
Experiment: ALK5 kinase activity, radiolabelled phosphate [33P] incorporation into casein
Assay type: biochemical
Conditions: casein substrate, 1 μM unlabelled ATP
Procedure: The kinase activity of ALK5 is assessed by measuring radiolabelled phosphate [33P] incorporation in to the generic substrate, casein. The kinase domain of human ALK5 (amino acids 200-503) is fused to an N-terminal histidine tag. The kinase activity of ALK5 is rendered constitutive via point mutation at amino acid 204 (threonine to aspartate modification, ALK5 T204D) and the kinase construct is engineered to be expressed from a baculovirus expression construct in insect cells. The purified, recombinantly-expressed histidine-tagged ALK5 T204D protein is dissolved at 5.4 mg/ml in 50 mM Tris-HCl pH 8.0, 150 mM NaCl, 5 mM DTT. ALK5 T204D is dissolved to 2.5 μg/ml in assay buffer (Assay buffer: 20 mM Tris-HCl pH 7.4, 10 mM MgCl2, 2 mM MnCl2) on the day of use.
Test compounds and reference compounds are dissolved in assay buffer without DTT containing 5% (v/v) DMSO. Stock solutions of test and reference compounds are diluted in assay buffer with DTT (1.25 mM) containing 4.5% (v/v) DMSO. 10 μl of test or reference compound are added to the corresponding wells of 96 well U-bottomed plate. Total enzyme activity is determined by measuring ALK5 T204D activity in the absence of ALK5 kinase inhibitor reference compounds. Non-specific binding (NSB) is determined by measuring the activity of ALK5 T204D in the presence of ALK5 kinase inhibitor reference compounds. 10 μl of dephosphorylated casein stock solution (dephosphorylated casein is dissolved in ddH2O at 20 mg/ml) is added per well (200 μg/well final assay concentration). 20 μl of ALK5 T204D (2.5 μg/ml solution) is added per well (50 ng/well final assay concentration). The plates are left to incubate at room temperature for 10 minutes.
10 μl of ATP mix is added to the well to initiate the reaction (0.66 nM [^33P]ATP/1 μM unlabelled ATP/well final assay concentration). The ATP mix is prepared as follows, unlabelled ATP (3 mM) is dissolved in ddH2O and pH adjusted to 7.4. The stock concentration of [^33P]ATP is 10 μCi/μl. The corresponding volume of [^33P]ATP is added to unlabelled ATP solution such that the final assay concentration per well is 0.1 μCi. Following addition of the ATP mix, the plates are incubated at room temperature for 50 minutes. The kinase reaction is terminated by the addition of 50 μL Stop Buffer (20 mM Tris-HCl pH 7.4, 10 mM EDTA).
75 μl/well from the reaction plate is transferred to a Multiscreen-IP plate (MultiScreen-IP plates are prepared by added 50 μL of 70% (v/v) ethanol per well and incubated for 5 minutes at room temperature. The ethanol is removed by aspiration via a MultiScreen HTS Vacuum Manifold unit (Millipore, Cat no: MSVMHT500). The plates are washed twice by adding 200 μl/well ddH2O). The MultiScreen-IP plate is incubated at room temperature for 30 minutes to allowing binding of casein to the plate. The MultiScreen-IP plates are washed three times by adding 200 μl/well 100 mM phosphoric acid solution and the gasket is carefully removed from the back of the MultiScreen-IP plate and the plate dried in the oven for 30 minutes. The MultiScreen-IP plate is backsealed, 50 μL of Microscint™ 20 is added, then the plates are topsealed and radiolabelled casein detected and quantified on a TopCount™ plate-reader using the ^33P scintillation protocol.

| IC50 | Structure (SMILES) |
| --- | --- |
| 28 nM | c1ccc(-c2cc(-c3cnc4cc(-c5ccncc5)cnn34)ccn2)cc1 [Example 10, 3-(2-Phenyl-pyridin-4-yl)-7-pyridin-4-yl-imidazo[1,2-b]pyridazine] |
| 236 nM | CCCCNC(=O)c1cccc(-c2cnn3c(-c4ccnc(-c5ccccc5)c4)cnc3c2)c1 [Example 59, N-Butyl-3-[3-(2-Phenyl-pyridin-4-yl)-imidazo[1,2-b]pyridazin-7-yl]-benzamide] |
| 203 nM | COc1cc(-c2cnc3cc(-c4cccnc4)cnn23)ccc1O [Example 20, 2-Methoxy-4-(7-pyridin-3-yl-imidazo[1,2-b]pyridazin-3-yl)-phenol] |
| 141 nM | CCOC(=O)c1ccc(-c2cnn3c(-c4cccc(-n5cccn5)c4)cnc3c2)cc1 [Example 34, 4-[3-(3-Pyrazol-1-yl-phenyl)-imidazo[1,2-b]pyridazin-7-yl]-benzoic acid ethyl ester] |

Continued, compound first:

| Structure (SMILES) | IC50 |
| --- | --- |
| Oc1cccc(-c2cnn3c(-c4cccc(-n5cccn5)c4)cnc3c2)c1 [Example 8, 3-[3-(3-Pyrazol-1-yl-phenyl)-imidazo[1,2-b]pyridazin-7-yl]-phenol] | 24 nM |
| NC(=O)c1cccc(-c2cnc3cc(-c4cccc(F)c4)cnn23)c1 [Example 24, 3-[7-(3-Fluoro-phenyl)-imidazo[1,2-b]pyridazin-3-yl]-benzamide] | 83 nM |
| CNC(=O)c1cccc(-c2cnn3c(-c4ccnc(-c5ccccc5)c4)cnc3c2)c1 [Example 1, N-Methyl-3-[3-(2-phenyl-pyridin-4-yl)-imidazo[1,2-b]pyridazin-7-yl]-benzamide] | 83 nM |
| CNC(=O)c1cccc(-c2cnn3c(-c4ccnc(-c5ccc(F)cc5)c4)cnc3c2)c1 [Example 6, 3-{3-[2-(4-Fluoro-phenyl)-pyridin-4-yl]-imidazo[1,2-b]pyridazin-7-yl}-N-methyl-benzamide] | 139 nM |
| CS(=O)(=O)Nc1cccc(-c2cnn3c(-c4ccnc(-c5ccoc5)c4)cnc3c2)c1 [Example 14, N-{3-[3-(2-Furan-3-yl-pyridin-4-yl)-imidazo[1,2-b]pyridazin-7-yl]-phenyl}-methanesulfonamide] | 42 nM |
| c1cncc(-c2cnn3c(-c4cccc(-n5cccn5)c4)cnc3c2)c1 [Example 18, 3-(3-Pyrazol-1-yl-phenyl)-7-pyridin-3-yl-imidazo[1,2-b]pyridazine] | 47 nM |
